Each structure is given as a SMILES string. Where two headings read alike, the source gives them in different places.

In data set [1] the test system is LPS-induced RAW 264.7 macrophages. The data set can be described thus: Nitric oxide (NO) production inhibition in LPS-induced RAW 264.7 macrophages (nitrite determination). It counts as cell-based. The conditions noted are these: for inhibition at 1 µM: RAW264.7, 1 µM; for inhibition at 5 µM: RAW264.7, 5 µM; for inhibition at 10 µM: RAW264.7, 10 µM. How it is done:
The ability of a certain molecule to inhibit the production of inflammatory mediator(s) is one of successful approach to treatment both chronic and acute inflammation.
(§1) Cell culture and sample treatment were performed as reported in the literature. The 3-(4,5-dimethylthiazol-2-yl)-2,5-diphenyltetrazolium bromide (MTT) assay for cell viability followed the procedure previously described in the literature. Nitrite determination was carried as described in the literature, and the PGE2 assay was carried as previously described.

A short description of data set [2]: MTT assay for cell viability / cytotoxicity. The conditions noted are these: mouse, RAW 264.7 macrophages, means ± SD of three independent experiments. It counts as cell-based. The procedure: In addition to NO inhibition, the cytotoxic activity of compounds 1a–i, 2a–i, 3a–h, and 4a–h in RAW 264.7 macrophages were measured using the 3-(4,5-dimethylthiazol-2-yl)-2,5-diphenyltetrazolium bromide (MTT) assay to check whether the effects on the production of NO was caused by nonspecific cytotoxicity.
as §1

Setting [3] is: Mus musculus, LPS-induced RAW 264.7 macrophages.
[4] abbreviates: Mus musculus, RAW264.7, nitric oxide production, means ± SD of three independent experiments, read-out: NO (IC50).

The molecule `COc1ccc(S(=O)(=O)NCCNc2cc(-c3cn(-c4ccccc4)nc3-c3cccc(OC)c3)ccn2)cc1` [Compound 1e, 4-Methoxy-N-(2-((4-(3-(3-methoxyphenyl)-1-phenyl-1H-pyrazol-4-yl)pyridin-2-yl)amino)ethyl)benzenesulfonamide] gave a melting point of 144 to 146 °C. In data set [1] (setting [3]), this molecule registered an inhibition at 1 µM of 13.52 ± 0.11%, an inhibition at 5 µM of 16.1 ± 0.09% and an inhibition at 10 µM of 41.5 ± 0.99%. For the same molecule, in data set [1] (setting [4]), the IC50 was found to be 13.4 ± 0.72 µM. This molecule displayed an IC50 in data set [2] of 285 ± 4.18 µM.

With `CC(=N)NCCCC[C@H](N)C(=O)O` [L-NIL, N^6-(1-Iminoethyl)-L-lysine, reference compound], the IC50 in data set [1] (Mus musculus, RAW264.7, read-out: NO (IC50)) stood at 29.32 ± 0.15 µM. Further, in data set [1] (Mus musculus, RAW264.7, read-out: Nitric Oxide % Inhibition), the inhibition at 40 µM came to 77.9 ± 4.25%.

In turn, `O=S(=O)(NCCCNc1cc(-c2cn(-c3ccccc3)nc2-c2cccc(O)c2)ccn1)c1ccc(Cl)cc1` [Compound 4c, 4-Chloro-N-(3-((4-(3-(3-hydroxyphenyl)-1-phenyl-1H-pyrazol-4-yl)pyridin-2-yl)amino)propyl)benzenesulfonamide] showed a melting point of 166 to 168 °C. Further, in data set [1] (setting [3]), the inhibition at 1 µM came to 0.86 ± 0.09%, testing at 5 µM gave an inhibition of 22 ± 0.42% and the inhibition at 10 µM turned out to be 47 ± 1.34%. The IC50 in data set [1] (setting [4]) stood at 13.2 ± 0.52 µM. The same molecule displayed an IC50 in data set [2] of 18.8 ± 0.68 µM.

`O=S(=O)(NCCNc1cc(-c2cn(-c3ccccc3)nc2-c2cccc(O)c2)ccn1)c1ccc(C(F)(F)F)cc1` [Compound 3f, N-(2-((4-(3-(3-Hydroxyphenyl)-1-phenyl-1H-pyrazol-4-yl)pyridin-2-yl)amino)ethyl)-4-(trifluoromethyl)benzenesulfonamide]: in data set [1] (setting [3]), the inhibition at 1 µM stood at 6.08 ± 0.07%, the inhibition at 5 µM worked out at 15.2 ± 0.91% and testing at 10 µM gave an inhibition of 36.5 ± 0.59%. For the same molecule, the IC50 in data set [1] (setting [4]) came out at 22.2 ± 0.31 µM.

Regarding `O=S(=O)(NCCNc1cc(-c2cn(-c3ccccc3)nc2-c2cccc(O)c2)ccn1)c1ccc(Br)cc1` [Compound 3b, 4-Bromo-N-(2-((4-(3-(3-hydroxyphenyl)-1-phenyl-1H-pyrazol-4-yl)pyridin-2-yl)amino)ethyl)benzenesulfonamide], the melting point was in the range of 178 to 180 °C. Moreover, in data set [1] (setting [3]), the inhibition at 1 µM turned out to be 15.8 ± 0.16%, testing at 5 µM gave an inhibition of 24.4 ± 0.52% and the inhibition at 10 µM is 48.7 ± 1.74%. In addition, in data set [1] (setting [4]), the IC50 was determined as 10.6 ± 0.51 µM. In addition, in data set [2], the IC50 is 24.3 ± 0.41 µM.

As to `O=S(=O)(NCCCNc1cc(-c2cn(-c3ccccc3)nc2-c2cccc(O)c2)ccn1)c1ccc(Br)cc1` [Compound 4b, 4-Bromo-N-(3-((4-(3-(3-hydroxyphenyl)-1-phenyl-1H-pyrazol-4-yl)pyridin-2-yl)amino)propyl)benzenesulfonamide], in data set [1] (10 µM, LPS-induced RAW 264.7 macrophages), the “Nitric Oxide % Inhibition” value came to 63.82 ± 2.14%. In data set [1] (setting [3]), this molecule registered an inhibition at 1 µM of 8.19 ± 0.06%, an inhibition at 5 µM of 22.2 ± 0.72% and an inhibition at 10 µM of 63.9%. Besides, the IC50 in data set [1] (setting [4]) came to 8.34 ± 0.11 µM. The molecule further gave an IC50 in data set [2] of 19.5 ± 0.49 µM.

In data set [1] (setting [3]), `COc1cccc(-c2nn(-c3ccccc3)cc2-c2ccnc(NCCCNS(=O)(=O)c3cccc(F)c3)c2)c1` [Compound 2h, 3-Fluoro-N-(3-((4-(3-(3-methoxyphenyl)-1-phenyl-1H-pyrazol-4-yl)pyridin-2-yl)amino)propyl)benzenesulfonamide] gave an inhibition at 1 µM of 4.87 ± 0.05%, an inhibition at 5 µM of 24.1 ± 0.91% and an inhibition at 10 µM of 41.5 ± 1.12%. Further, in data set [1] (setting [4]), the IC50 is 9.19 ± 0.25 µM. The same molecule had an IC50 in data set [2] of 246 ± 2.71 µM.

For the molecule `O=S(=O)(NCCCNc1cc(-c2cn(-c3ccccc3)nc2-c2cccc(O)c2)ccn1)c1cccc(F)c1` [Compound 4g, 3-Fluoro-N-(3-((4-(3-(3-hydroxyphenyl)-1-phenyl-1H-pyrazol-4-yl)pyridin-2-yl)amino)propyl)benzenesulfonamide], the melting point lay within 120 to 122 °C. Further, in data set [1] (setting [3]), testing at 5 µM gave an inhibition of 29.5 ± 0.86% and 10 µM produced 51.1 ± 1.45% inhibition. Moreover, the IC50 in data set [1] (setting [4]) worked out at 8.24 ± 0.41 µM. In data set [2], this molecule came in with an IC50 of 9.35 ± 0.32 µM.

Turning to `COc1cccc(-c2nn(-c3ccccc3)cc2-c2ccnc(NCCNS(=O)(=O)c3ccc(Cl)cc3)c2)c1` [Compound 1c, 4-Chloro-N-(2-((4-(3-(3-methoxyphenyl)-1-phenyl-1H-pyrazol-4-yl)pyridin-2-yl)amino)ethyl)benzenesulfonamide], the melting point lay in the range of 132 to 134 °C. In data set [1] (setting [3]), the inhibition at 1 µM was found to be 13.27 ± 0.08%, at 5 µM the inhibition was 24.76 ± 0.17% and the inhibition at 10 µM was 49.9 ± 1.25%. The IC50 in data set [1] (setting [4]) worked out at 10.1 ± 0.63 µM. Further, the IC50 in data set [2] came to 219.39 ± 0.14 µM.

`O=S(=O)(NCCNc1cc(-c2cn(-c3ccccc3)nc2-c2cccc(O)c2)ccn1)c1cccc2ccccc12` [Compound 3h, N-(2-((4-(3-(3-Hydroxyphenyl)-1-phenyl-1H-pyrazol-4-yl)pyridin-2-yl)amino)ethyl)naphthalene-1-sulfonamide] displayed a melting point of 146 to 148 °C.

Consider `O=S(=O)(NCCNc1cc(-c2cn(-c3ccccc3)nc2-c2cccc(O)c2)ccn1)c1ccc(Cl)cc1` [Compound 3c, 4-Chloro-N-(2-((4-(3-(3-hydroxyphenyl)-1-phenyl-1H-pyrazol-4-yl)pyridin-2-yl)amino)ethyl)benzenesulfonamide], for which the melting point was 100 to 102 °C. Also, in data set [1] (setting [3]), the inhibition at 1 µM turned out to be 6.34 ± 0.06%, 5 µM produced 11.7 ± 0.71% inhibition and the inhibition at 10 µM was determined as 33.8 ± 0.89%. The IC50 in data set [1] (setting [4]) was 15.2 ± 0.17 µM. Besides, inhibition in data set [2] was half-maximal at 22.7 ± 0.3 µM (IC50).

For the molecule `Cc1ccc(S(=O)(=O)NCCCNc2cc(-c3cn(-c4ccccc4)nc3-c3cccc(O)c3)ccn2)cc1` [Compound 4e, N-(3-((4-(3-(3-Hydroxyphenyl)-1-phenyl-1H-pyrazol-4-yl)pyridin-2-yl)amino)propyl)-4-methylbenzenesulfonamide], the melting point fell in the range of 158 to 160 °C. In addition, in data set [1] (setting [3]), testing at 1 µM gave an inhibition of 0.69 ± 0.01%, the inhibition at 5 µM worked out at 18.6 ± 0.98% and the inhibition at 10 µM worked out at 59.7 ± 0.7%. Besides, the IC50 in data set [1] (setting [4]) was 8.82 ± 0.32 µM. In addition, it took 23 ± 0.63 µM to reach half-maximal inhibition in data set [2] (IC50).

Molecule `O=S(=O)(NCCNc1cc(-c2cn(-c3ccccc3)nc2-c2cccc(O)c2)ccn1)c1ccccc1` [Compound 3a, N-(2-((4-(3-(3-Hydroxyphenyl)-1-phenyl-1H-pyrazol-4-yl)pyridin-2-yl)amino)ethyl)benzenesulfonamide] displayed a melting point of 100 to 102 °C. In data set [1] (setting [3]), this molecule came in with an inhibition at 1 µM of 4.78 ± 0.03%, an inhibition at 5 µM of 21.5 ± 0.37% and an inhibition at 10 µM of 49 ± 1.1%. Moreover, the IC50 in data set [1] (setting [4]) came out at 10.3 ± 0.23 µM. The same molecule displayed an IC50 in data set [2] of 29.8 ± 1.91 µM.

As to `COc1cccc(-c2nn(-c3ccccc3)cc2-c2ccnc(NCCNS(=O)(=O)c3cccc4ccccc34)c2)c1` [Compound 1i, N-(2-((4-(3-(3-Methoxyphenyl)-1-phenyl-1H-pyrazol-4-yl)pyridin-2-yl)amino)ethyl)naphthalene-1-sulfonamide], the melting point was 178 to 180 °C.

As for `COc1cccc(-c2nn(-c3ccccc3)cc2-c2ccnc(NCCCNS(=O)(=O)c3ccc(C)cc3)c2)c1` [Compound 2f, N-(3-((4-(3-(3-Methoxyphenyl)-1-phenyl-1H-pyrazol-4-yl)pyridin-2-yl)amino)propyl)-4-methylbenzenesulfonamide], the melting point fell in the range of 94 to 96 °C. Further, in data set [1] (setting [3]), the inhibition at 1 µM was determined as 4.36 ± 0.04%, the inhibition at 5 µM was 19.8 ± 0.96% and the inhibition at 10 µM was found to be 46.3 ± 3.21%. For the same molecule, in data set [1] (setting [4]), the IC50 came out at 9.16 ± 0.27 µM. The molecule further yielded an IC50 in data set [2] of 323 ± 3.35 µM.

In data set [1] (setting [3]), `COc1cccc(-c2nn(-c3ccccc3)cc2-c2ccnc(NCCCNS(=O)(=O)c3ccc(C(F)(F)F)cc3)c2)c1` [Compound 2g, N-(3-((4-(3-(3-Methoxyphenyl)-1-phenyl-1H-pyrazol-4-yl)pyridin-2-yl)amino)propyl)-4-(trifluoromethyl)benzenesulfonamide] showed an inhibition at 1 µM of 2.91 ± 0.02%, an inhibition at 5 µM of 26.3 ± 1.01% and an inhibition at 10 µM of 56 ± 0.89%. Moreover, the IC50 in data set [1] (setting [4]) was determined as 10.5 ± 0.44 µM. The molecule further came in with an IC50 in data set [2] of 252.6 ± 1.87 µM.

Regarding `COc1cccc(-c2nn(-c3ccccc3)cc2-c2ccnc(NCCCNS(=O)(=O)c3cccc4ccccc34)c2)c1` [Compound 2i, N-(3-((4-(3-(3-Methoxyphenyl)-1-phenyl-1H-pyrazol-4-yl)pyridin-2-yl)amino)propyl)naphthalene-1-sulfonamide], the melting point fell in the range of 134 to 136 °C.

In data set [1] (setting [3]), `O=S(=O)(NCCCNc1cc(-c2cn(-c3ccccc3)nc2-c2cccc(O)c2)ccn1)c1ccc(C(F)(F)F)cc1` [Compound 4f, N-(3-((4-(3-(3-Hydroxyphenyl)-1-phenyl-1H-pyrazol-4-yl)pyridin-2-yl)amino)propyl)-4-(trifluoromethyl)benzenesulfonamide] displayed an inhibition at 1 µM of 4.87 ± 0.14%, an inhibition at 5 µM of 18.9 ± 1.02% and an inhibition at 10 µM of 53.8 ± 1.87%. For the same molecule, the IC50 in data set [1] (setting [4]) amounted to 9.45 ± 0.15 µM. In data set [2], this molecule had an IC50 of 17.7 ± 0.61 µM.

In data set [1] (setting [3]), `O=S(=O)(NCCCNc1cc(-c2cn(-c3ccccc3)nc2-c2cccc(O)c2)ccn1)c1ccc(F)cc1` [Compound 4d, 4-Fluoro-N-(3-((4-(3-(3-hydroxyphenyl)-1-phenyl-1H-pyrazol-4-yl)pyridin-2-yl)amino)propyl)benzenesulfonamide] displayed an inhibition at 1 µM of 9.02 ± 0.03%, an inhibition at 5 µM of 20.8 ± 0.36% and an inhibition at 10 µM of 48.5 ± 1.79%. Moreover, the IC50 in data set [1] (setting [4]) is 11.3 ± 0.16 µM. It took 12.6 ± 0.22 µM to reach half-maximal inhibition in data set [2] (IC50).

The values above are taken from article PMC6222820, “Synthesis of New Triarylpyrazole Derivatives Possessing Terminal Sulfonamide Moiety and Their Inhibitory Effects on PGE2 and Nitric Oxide Productions in Lipopolysaccharide-Induced RAW 264.7 Macrophages” (Molecules : A Journal of Synthetic Chemistry and Natural …, 2018).
